Experimental data: publication PMC9969401, “Discovery of 2-(3-Benzamidopropanamido)thiazole-5-carboxylate Inhibitors of the Kinesin HSET (KIFC1) and the Development of Cellular Target Engagement Probes” (Journal of Medicinal Chemistry, 2023)
pIC50: −log10 of the molar value. Read-outs that look alike come from different tables or passages of the source.

Target: T1, recombinant full-length HSET (Homo sapiens, UniProt Q9BW19)
T1 construct: 5 nM full-length human N-terminal His-tag HSET; His-tag (N)
T1 sequence (Q9BW19 1-673): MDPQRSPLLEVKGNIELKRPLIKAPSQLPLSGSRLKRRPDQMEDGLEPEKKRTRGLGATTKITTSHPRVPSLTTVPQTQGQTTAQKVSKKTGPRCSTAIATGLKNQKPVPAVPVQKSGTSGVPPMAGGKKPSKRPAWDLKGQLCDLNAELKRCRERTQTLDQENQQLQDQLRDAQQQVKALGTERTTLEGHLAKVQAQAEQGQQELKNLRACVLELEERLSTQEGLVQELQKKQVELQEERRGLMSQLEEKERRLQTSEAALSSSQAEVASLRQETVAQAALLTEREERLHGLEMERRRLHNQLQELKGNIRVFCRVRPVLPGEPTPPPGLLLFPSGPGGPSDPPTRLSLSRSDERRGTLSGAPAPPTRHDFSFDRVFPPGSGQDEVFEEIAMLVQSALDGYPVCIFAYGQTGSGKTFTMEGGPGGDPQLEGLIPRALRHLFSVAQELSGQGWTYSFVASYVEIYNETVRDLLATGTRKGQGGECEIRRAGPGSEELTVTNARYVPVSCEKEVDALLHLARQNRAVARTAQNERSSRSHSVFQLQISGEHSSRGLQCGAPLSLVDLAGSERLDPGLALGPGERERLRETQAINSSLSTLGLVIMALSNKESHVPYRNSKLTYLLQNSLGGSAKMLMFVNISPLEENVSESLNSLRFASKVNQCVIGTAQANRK
Experiment: ADP-Glo HSET assay (3 μM ATP), microtubule-stimulated ATPase
Format: biochemical
Conditions: for HSET inhibitory activity (in words): HSET ADP-Glo
Description: The HSET or Eg5 ATPase activity was measured using the ADP-Glo Kinase Assay kit (Promega, V9102). The assays were run using final concentrations of 5 nM full-length human N-terminal His-tag HSET or 4 nM GST-tagged Eg5 motor domain protein (Cytoskeleton, EG01) and an assay buffer containing 20 mM HEPES pH 6.8, 10 mM MgCl2, 0.25 mM EGTA, 0.4 mM Triton X-100, and 1 mM DTT. Preformed microtubules (Universal Biologicals Cambridge, bovine MT001-XL, or porcine MT002-XL), which were reconstituted in 15 mM PIPES pH 7, 1 mM MgCl2, and 20 μM paclitaxel, were present at a final assay concentration of 70 μg/mL. A reaction volume of 5 μL was used in Proxiplate 384 plus white assay plates (PerkinElmer, 6008280). To measure compound inhibition, 100 nL of compound dissolved in DMSO or DMSO alone was preincubated with the HSET and microtubules for 10 min before 3 μM Ultra-Pure ATP was added to start the ATPase reaction for the 3 μM ATP HSET assay. For the 500 μM ATP HSET assay, the addition of 500 μM Ultra-Pure ATP was used. For the Eg5 ATPase assay, 4.8 μM Ultra-Pure ATP was used. All reactions were incubated at 25 °C for 80 min and then stopped by the addition of 5 μL of the ADP-Glo reagent. 10 μL of Kinase Detection Reagent was then added after a further 45 min of incubation. The luminescence was read after 45 min on a PheraStar FSX plate reader (BMG Labtech). The data processing was performed using Dotmatics Studies software package. Percentage inhibition was determined based on normalization to high controls (0% inhibition, all reagents with 100 nL of DMSO alone) and low controls (100% inhibition […], without HSET). The IC50 values for each compound were determined using a four-parameter logistic curve fit of % inhibition versus concentration.

[1] = LE = −1.4Log(IC50 [M])/number of non-hydrogen atoms (Table 1)
[2] = LLE = −Log(IC50 [M]) – cLogP (MoKa) (Table 1)
[3] = preformed microtubules, 3 μM ATP, mean (±SD) n ≥ 3, >200 from a single determination (Table 1), read-out: HSET ADP-Glo IC50
[4] = preformed microtubules, 3 μM ATP, mean (±SD) n ≥ 3, >200 from a single determination (Table 2), read-out: HSET ADP-Glo IC50
[5] = LE = −1.4Log(IC50 [M])/number of non-hydrogen atoms (Table 2)
[6] = LLE = −Log(IC50 [M]) – cLogP (MoKa) (Table 2)

LE [1] | LLE [2] | pIC50 [3] | HSET inhibitory activity (in words) | pIC50 [4] | also measured | SMILES
– | – | – | – | – | inhibition at 200 µM (200μM compound, 3 μM ATP, single determination): 52%; fold reduction in HSET potency (relative to 2): seventy-fold | CCOC(=O)c1sc(NC(=O)CCNC(=O)c2ccccc2C)nc1C [Compound 3, Ethyl 4-methyl-2-(3-(2-methylbenzamido)propanamido)thiazole-5-carboxylate]
0.29 | 2.2 | 5.33 | – | – | pIC50 (3 μM ATP, curve plateaued, read-out: mean concentration observed at 50% inhibition (HSET ADP-Glo)): 4.89 | CCOC(=O)c1sc(NC(=O)CCNC(=O)c2ccc(C)cc2)nc1C [Compound 4, Ethyl 4-Methyl-2-(3-(4-methylbenzamido)propanamido)thiazole-5-carboxylate]
0.29 | 2.2 | 5.63 | – | – | – | CCOC(=O)c1sc(NC(=O)CCNC(=O)c2cccc(CC)c2)nc1C [Compound 5, Ethyl 2-(3-(3-Ethylbenzamido)propanamido)-4-methylthiazole-5-carboxylate]
– | – | < 3.70 | ablated the activity | – | – | CCOC(=O)c1sc(NC(=O)CCNC(=O)c2cccc(Cl)c2)nc1C [Compound 6, Ethyl 2-(3-(3-Chlorobenzamido)propanamido)-4-methylthiazole-5-carboxylate]
– | – | < 3.70 | no activity | – | – | CCNC(=O)c1sc(NC(=O)CCNC(=O)c2cccc(C)c2)nc1C [Compound 7, N-Ethyl-4-methyl-2-(3-(3-methylbenzamido)propanamido)thiazole-5-carboxamide]
– | – | < 3.70 | ablated the activity | – | – | CCOC(=O)c1sc(NC(=O)CCNC(C)=O)nc1C [Compound 8, ethyl 2-(3-acetamidopropanamido)-4-methylthiazole-5-carboxylate]
– | – | < 3.70 | ablated the activity | – | – | CCOC(=O)c1sc(NC(=O)CCNC(=O)c2ccccc2)nc1C [Compound 9, Ethyl 2-(3-Benzamidopropanamido)-4-methylthiazole-5-carboxylate]
– | – | < 3.70 | ablated the activity | – | – | CCOC(=O)c1sc(NC(=O)CCNC(=O)C2CCCC(C)C2)nc1C (stereo not shown) [Compound 10, Ethyl 4-Methyl-2-(3-(3-methylcyclohexane-1-carboxamido)propanamido)thiazole-5-carboxylate]
0.28 | 2.8 | 5.45 | – | – | – | CCOC(=O)c1sc(NC(=O)CCNC(=O)c2cccc(OC)c2)nc1C [Compound 11, Ethyl 2-(3-(3-Methoxybenzamido)propanamido)-4-methylthiazole-5-carboxylate]
0.25 | 1.2 | 5.61 | – | – | – | CCOC(=O)c1sc(NC(=O)CCNC(=O)c2cccc(-c3ccccc3)c2)nc1C [Compound 12, Ethyl 2-(3-([1,1′-Biphenyl]-3-carboxamido)propanamido)-4-methylthiazole-5-carboxylate]
0.25 | 2.8 | 5.68 | – | – | fold reduction in HSET potency (relative to 13): 33 fold | CCOC(=O)c1sc(NC(=O)CCNC(=O)c2cccc(-c3noc(CC)n3)c2)nc1C [Compound 14, Ethyl 2-(3-(3-(5-Ethyl-1,2,4-oxadiazol-3-yl)benzamido)propanamido)-4-methylthiazole-5-carboxylate]
– | – | < 3.70 | eliminated potency | – | – | CCOC(=O)c1sc(NC(=O)CCNC(=O)c2cccc(-c3n[nH]c(C)n3)c2)nc1C [Compound 15, Ethyl 4-Methyl-2-(3-(3-(5-methyl-1H-1,2,4-triazol-3-yl)benzamido)propanamido)thiazole-5-carboxylate]
0.3 | 4.4 | 6.59 | – | – | – | CCOC(=O)c1sc(NC(=O)CCNC(=O)c2cccc(-c3nnc(C)o3)c2)nc1C [Compound 16, Ethyl 4-Methyl-2-(3-(3-(5-methyl-1,3,4-oxadiazol-2-yl)benzamido)propanamido)thiazole-5-carboxylate]
0.32 | 4.3 | 7.00 | – | – | – | CCOC(=O)c1sc(NC(=O)CCNC(=O)c2cccc(-c3nc(C)no3)c2)nc1C [Compound 17, Ethyl 4-Methyl-2-(3-(3-(3-methyl-1,2,4-oxadiazol-5-yl)benzamido)propanamido)thiazole-5-carboxylate]
– | – | – | – | – | inhibition at 4 µM (4μM compound, 3 μM ATP): 50%; fold reduction in HSET potency (relative to 13): 65 fold; pIC50 (supplementary CSV, read-out: HSET ADP-Glo IC50): < 5.40 | CCOC(=O)c1cnc(NC(=O)CCNC(=O)c2cccc(-c3noc(C)n3)c2)s1 [Compound 19, Ethyl 2-(3-(3-(5-Methyl-1,2,4-oxadiazol-3-yl)benzamido)propanamido)thiazole-5-carboxylate]
– | – | – | – | < 3.70 | fold reduction in HSET potency (relative to 13): 3000 fold | Cc1csc(NC(=O)CCNC(=O)c2cccc(-c3noc(C)n3)c2)n1 [Compound 20, 3-(5-Methyl-1,2,4-oxadiazol-3-yl)-N-(3-((4-methylthiazol-2-yl)amino)-3-oxopropyl)benzamide]
– | – | – | abolished the HSET activity | < 3.70 | – | CCOC(=O)c1sc(NC(=O)CNC(=O)c2cccc(-c3noc(C)n3)c2)nc1C [Compound 21, Ethyl 4-Methyl-2-(2-(3-(5-methyl-1,2,4-oxadiazol-3-yl)benzamido)acetamido)thiazole-5-carboxylate]
– | – | – | abolished the HSET activity | < 3.70 | – | CCOC(=O)c1sc(NC(=O)CCCNC(=O)c2cccc(-c3noc(C)n3)c2)nc1C [Compound 22, Ethyl 4-Methyl-2-(4-(3-(5-methyl-1,2,4-oxadiazol-3-yl)benzamido)butanamido)thiazole-5-carboxylate]
– | – | – | – | 7.05 | LE [5]: 0.31; LLE [6]: 4.6 | CCOC(=O)c1sc(N(C)C(=O)CCNC(=O)c2cccc(-c3noc(C)n3)c2)nc1C [Compound 23, Ethyl 4-Methyl-2-(N-methyl-3-(3-(5-methyl-1,2,4-oxadiazol-3-yl)benzamido)propanamido)thiazole-5-carboxylate]
– | – | – | – | 4.35 | LE [5]: 0.19; LLE [6]: 2.1; fold reduction in HSET potency (relative to 13): 700 fold | CCOC(=O)c1sc(NC(=O)CCN(C)C(=O)c2cccc(-c3noc(C)n3)c2)nc1C [Compound 24, Ethyl 4-Methyl-2-(3-(N-methyl-3-(5-methyl-1,2,4-oxadiazol-3-yl)benzamido)propanamido)thiazole-5-carboxylate]
– | – | – | – | 6.39 | LE [5]: 0.29; LLE [6]: 3.9; fold reduction in HSET potency (relative to 13): six-fold | CCOC(=O)c1sc(C(=O)NCCNC(=O)c2cccc(-c3noc(C)n3)c2)nc1C [Compound 25, Ethyl 4-Methyl-2-((2-(3-(5-methyl-1,2,4-oxadiazol-3-yl)benzamido)ethyl)carbamoyl)thiazole-5-carboxylate]
– | – | – | – | 4.94 | LE [5]: 0.22; LLE [6]: 2.5; fold reduction in HSET potency (relative to 13): greater than 180 fold | CCOC(=O)c1ccc(NC(=O)CCNC(=O)c2cccc(-c3noc(C)n3)c2)nc1C [Compound 27, Ethyl 2-Methyl-6-(3-(3-(5-methyl-1,2,4-oxadiazol-3-yl)benzamido)propanamido)nicotinate]
